Data as given in patent publication US11464770B2, “Anticancer pharmaceutical composition” (NATIONAL CANCER CENTER, priority 2016, dated 2022).
Like-named read-outs stand apart in the source and are kept apart here.

Legend:
[1] = tested on: bladder cancer cell lines; experiment: Cell based assay, cell viability (CellTiter-Glo), bladder cancer cell lines; conditions: 72 hours treatment, 0 to 2 μM, CellTiter-Glo
In short: (§1)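 Viability measured by ATP luminescence following 72 h treatment over a 0–2 μM final concentration range.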

[2] = tested on: blood cancer cell lines (e.g. HL-60, Jurkat, Raji, Ramos, Daudi, MOLT-4); experiment: Cell based assay, cell viability (CellTiter-Glo), blood cancer cell lines; conditions: Homo sapiens
In short: as §1

[3] = 253J cells, read-out: IC50, bladder cancer cell line 253J
[4] = 5637 cells, read-out: IC50, bladder cancer cell line 5637
[5] = Homo sapiens, T-24, T24 cells, read-out: IC50, bladder cancer cell line T24
[6] = Homo sapiens, J82 cells, read-out: IC50, bladder cancer cell line J82
[7] = MV4-11, blood cancer cell line MV-4-11, 72 hours, read-out: IC50, MV-4-11
[8] = blood cancer cell line Daudi, 72 hours, read-out: IC50, Daudi
[9] = blood cancer cell line HL-60, 72 hours, read-out: IC50, HL-60
[10] = blood cancer cell line Jurkat, 72 hours, read-out: IC50, Jurkat
[11] = blood cancer cell line MOLT-4, 72 hours, read-out: IC50, MOLT-4
[12] = blood cancer cell line Raji, 72 hours, read-out: IC50, Raji
[13] = blood cancer cell line Ramos (RA 1), 72 hours, read-out: IC50, Ramos (RA 1)
[14] = blood cancer cell line U-937, 72 hours, read-out: IC50, U-937

Row | SMILES | IC50 [1, 3] [nM] | IC50 [1, 4] [nM] | IC50 [1, 5] [nM] | IC50 [1, 6] [nM] | IC50 [2, 7] [nM] | IC50 [2, 8] [nM] | IC50 [2, 9] [nM] | IC50 [2, 10] [nM] | IC50 [2, 11] [nM] | IC50 [2, 12] [nM] | IC50 [2, 13] [nM] | IC50 [2, 14] [nM] | IC50 ([1]; Homo sapiens, UMUC3, UM-UC-3 cells, read-out: IC50, bladder cancer cell line UM-UC-3) [nM] | IC50 ([1]; Homo sapiens, KU-19-19 cells, read-out: IC50, bladder cancer cell line KU-19-19) [nM] | IC50 ([1]; MBT-2 cells, read-out: IC50, bladder cancer cell line MBT-2) [nM]
1 | CC(C)C(=O)c1c([S+]([O-])Cc2ccc(SC(F)(F)F)cc2)[nH]c2c(F)ccc(F)c2c1=O (stereo not drawn) [Compound 85, 5,8-difluoro-3-isobutyryl-2-((4-((trifluoromethyl)thio)benzyl)sulfinyl)quinolin-4(1H)-one] | > 2000 | > 2000 | > 2000 | > 2000 | > 2000 | > 2000 | > 2000 | > 2000 | > 2000 | > 2000 | > 2000 | > 2000 |  |  | 
2 | O=C(c1ccccc1)c1c([S+]([O-])Cc2ccc(S(F)(F)(F)(F)F)cc2)[nH]c2c(F)ccc(F)c2c1=O (stereo not drawn) [Compound 87, 3-benzoyl-5,8-difluoro-2-((4-(pentafluoro--sulfanyl)benzyl)sulfinyl)quinolin-4(1H)-one] | > 2000 | > 2000 | > 2000 | > 2000 | > 2000 | > 2000 | > 2000 | > 2000 | > 2000 | > 2000 | > 2000 | > 2000 |  |  | 
3 | Cc1cc(C[S+]([O-])c2[nH]c3c(Cl)ccc(Cl)c3c(=O)c2C(=O)c2ccccc2)no1 (stereo not drawn) [Compound 88, 3-benzoyl-5,8-dichloro-2-(((5-methylisoxazol-3-yl)methyl)sulfinyl)quinolin-4(1H)-one] | > 2000 | > 2000 | > 2000 | > 2000 | > 2000 | > 2000 | > 2000 | > 2000 | > 2000 | > 2000 | > 2000 | > 2000 |  |  | 
4 | CC(=O)c1c([S+]([O-])CN2C(=O)c3ccccc3C2=O)[nH]c2c(Cl)ccc(Cl)c2c1=O (stereo not drawn) [Compound 90, 2-(((3-acetyl-5,8-dichloro-4-oxo-1,4-dihydroquinolin-2-yl)sulfinyl)methyl)isoindoline-1,3-dione] | > 2000 | > 2000 | > 2000 | > 2000 | > 2000 | > 2000 | > 2000 | > 2000 | > 2000 | > 2000 | > 2000 | > 2000 | > 2000 | > 2000 | > 2000
5 | COC(=O)c1ccc(C[S+]([O-])c2[nH]c3c(Cl)ccc(Cl)c3c(=O)c2C(C)=O)cc1 (stereo not drawn) [Compound 91, methyl 4-(((3-acetyl-5,8-dichloro-4-oxo-1,4-dihydroquinolin-2-yl)sulfinyl)methyl)benzoate] | > 2000 | > 2000 | > 2000 | > 2000 | > 2000 | > 2000 | > 2000 | 1730 | > 2000 | > 2000 | > 2000 | > 2000 |  |  | 

Further lines, results first:

Row | IC50 [1, 3] [nM] | IC50 [1, 4] [nM] | IC50 [1, 5] [nM] | IC50 [1, 6] [nM] | IC50 [2, 7] [nM] | IC50 [2, 8] [nM] | IC50 [2, 9] [nM] | IC50 [2, 10] [nM] | IC50 [2, 11] [nM] | IC50 [2, 12] [nM] | IC50 [2, 13] [nM] | IC50 [2, 14] [nM] | IC50 ([1]; Homo sapiens, UMUC3, UM-UC-3 cells, read-out: IC50, bladder cancer cell line UM-UC-3) [nM] | IC50 ([1]; Homo sapiens, KU-19-19 cells, read-out: IC50, bladder cancer cell line KU-19-19) [nM] | IC50 ([1]; MBT-2 cells, read-out: IC50, bladder cancer cell line MBT-2) [nM] | SMILES
6 | > 2000 | > 2000 | > 2000 | > 2000 | > 2000 | > 2000 | > 2000 | > 2000 | > 2000 | > 2000 | > 2000 | > 2000 |  |  |  | CC(=O)c1c([S+]([O-])Cc2ccc(S(F)(F)(F)(F)F)cc2)[nH]c2c(F)ccc(F)c2c1=O (stereo not drawn) [Compound 80, 3-acetyl-5,8-difluoro-2-((4-(pentafluoro--sulfanyl)benzyl)sulfinyl)quinolin-4(1H)-one]
7 | > 2000 | > 2000 | > 2000 | > 2000 | > 2000 | > 2000 | > 2000 | > 2000 | > 2000 | > 2000 | > 2000 | > 2000 |  |  |  | CC(=O)c1c([S+]([O-])Cc2ccc(C(F)(F)F)o2)[nH]c2c(F)ccc(F)c2c1=O (stereo not drawn) [Compound 81, 3-acetyl-5,8-difluoro-2-(((5-(trifluoromethyl)furan-2-yl)methyl)sulfinyl)quinolin-4(1H)-one]
8 | > 2000 | > 2000 | > 2000 | > 2000 | > 2000 | > 2000 | > 2000 | > 2000 | > 2000 | > 2000 | > 2000 | > 2000 |  |  |  | CC(=O)c1c([S+]([O-])Cc2cc(C)on2)[nH]c2c(F)ccc(F)c2c1=O (stereo not drawn) [Compound 82, 3-acetyl-5,8-difluoro-2-(((5-methylisoxazol-3-yl)methyl)sulfinyl)quinolin-4(1H)-one]
